The subject of data set [1] is rat. The data set can be described thus: Pentylenetetrazole (PTZ) Seizure Test. The note with it: for NUMBER OF CLONIC CONVULSIONS number of rats / NUMBER OF DEATHS number of rats / NUMBER OF TONIC CONVULSIONS number of rats: 10 rats per group; for NUMBER OF CLONIC CONVULSIONS number of rats / NUMBER OF DEATHS number of rats / NUMBER OF TONIC CONVULSIONS number of rats / NUMBER OF CLONIC CONVULSIONS % antagonism / NUMBER OF DEATHS % antagonism / NUMBER OF TONIC CONVULSIONS % antagonism: observed during 60 minutes. The class given is in vivo. An excerpt: (§1) The following Tables report the results of the Irwin, PTZ and barbital interaction (sleep induction) tests. Description of these tests may be found in Psychopharmacologica, 13:222-257 (1968), Krall et al, Epilepsia 19:409-428 (1978), and Simon et al, J. Pharmacol, Paris 13:241-252 (1982). See also Roux et al, Phoenix international Pharmacology Reports Nos. D30.2061/2 and D99.021/2.
Table 2a reports mean results based on animals showing the symptoms (minimum=3 animals). Table 2b reports results observed during 60 minutes. In these Tables: Student's t Test: NS=Not Significant; *=p<0.05; ** p<0.01; ***=p<0.001 Fisher's Exact Test: No indication=Not Significant; **=p<0.01; ***=p<0.001

In data set [2] the test system is rat. The experiment in a line: barbital interaction (sleep induction) test. The format is in vivo. The note with it: for NUMBER OF RATS SLEEPING: 10 rats per group; for SLEEP DURATION mean ± s.e.m.: maximum 6 hours after barbital injection.
Text: as §1
In Table 3, the following apply: Student's t Test: NS=Not Significant; *=p<0.05; **=p<0.01; ***=<0.001 Fisher's Exact Test: (number of rats sleeping) No indication=Not Significant; +=p<0.05; ++=p<0.01; +++=p<0.001 • (#): maximum=6 hours after barbital injection (taken 50 minutes after barbital injection).

The test system of a further data set is patients with epilepsy. The note with it: ABPI Compendium 1999-2000; cited from earlier work.
The conditions of data set [3]: intravenous administration; Srinivas 1993; cited from earlier work.
The test system of data set [4] is attention-deficit hyperactivity disorder (ADHD). The note with it: Patrick et al 1987; cited from earlier work.

Marks after values point to notes of the source that are not given here.

Regarding `CCOC(=O)c1ncn2c1CN(C)C(=O)c1cc(N=[N+]=[N-])ccc1-2` [RO 15-4513, reference compound], in the data set with rat [1] (2 mg/kg s.c. −30 min), the “NUMBER OF CLONIC CONVULSIONS number of rats” value is listed as 10, the “NUMBER OF DEATHS number of rats” value came to 10, the “NUMBER OF TONIC CONVULSIONS number of rats” value was found to be 10 and the “NUMBER OF CLONIC CONVULSIONS % antagonism” value turned out to be 0%. Further, in the data set on rat [1] (2 mg/kg s.c. −30 min), the “NUMBER OF DEATHS % antagonism” value is listed as 0% and the “NUMBER OF TONIC CONVULSIONS % antagonism” value is recorded as 0%. Further, in the data set with rat [1] (2 mg/kg s.c. −30 min, rat), the “LATENCY TO CLONIC CONVULSIONS % change from control” value is −37%, the “LATENCY TO CLONIC CONVULSIONS mean ± s.e.m.” value is listed as 345.0 ± 59.4* sec, the “LATENCY TO DEATHS % change from control” value was −36% and the “LATENCY TO DEATHS mean ± sem.” value is 837.0 ± 116.7** sec. Further, in the data set on rat [1] (2 mg/kg s.c. −30 min, rat), the “LATENCY TO TONIC CONVULSIONS % change from control” value is on record as −42% and the “LATENCY TO TONIC CONVULSIONS mean ± sem.” value is recorded as 681.0 ± 102.6** sec.

Take `COC(=O)C(c1ccccc1)C1CCCCN1` (racemic) [d,l-MPH, d,l-threo-methylphenidate]: the “SLEEP DURATION % change from control” value in the data set with rat [2] (0.25 mg/kg s.c. −30 min) is “+51%”; in the data set on rat [2] (0.5 mg/kg s.c. −30 min) it was −19%; in the data set with rat [2] (1 mg/kg s.c. −30 min), −100%; with rat [2] (2 mg/kg s.c. −30 min) it was −70%; in the data set with rat [2] (4 mg/kg s.c. −30 min), −100%. The “NUMBER OF RATS SLEEPING” value in the data set on rat [2] (0.25 mg/kg s.c. −30 min) is 9; in the data set on rat [2] (0.5 mg/kg s.c. −30 min), 8; with rat [2] (1 mg/kg s.c. −30 min), 0 +++; in the data set with rat [2] (2 mg/kg s.c. −30 min) it was 4 +; in the data set on rat [2] (4 mg/kg s.c. −30 min) it was 0 +++. The “SLEEP DURATION mean ± s.e.m.” value in the data set on rat [2] (0.25 mg/kg s.c. −30 min) was 94.2 ± 18.3 NS min; in the data set on rat [2] (0.5 mg/kg s.c. −30 min) it was 50.2 ± 16.2 NS min; in the data set on rat [2] (1 mg/kg s.c. −30 min), 0.0 ± 0.0*** min; in the data set with rat [2] (2 mg/kg s.c. −30 min), 19.0 ± 12.6 min; with rat [2] (4 mg/kg s.c. −30 min), 0.0 ± 0.0*** min. The “effect on seizure frequency” value in the data set with patients with epilepsy is on record as “can cause an increase in seizure frequency in a small number of such patients”. Also, in data set [3], the “time after dosing with similar plasma levels of the two enantiomers” value is listed as “around 1.5 hours”.

`CN1C(=O)CN=C(c2ccccc2)c2cc(Cl)ccc21` [DIAZEPAM, diazepam, reference compound]: in the data set with rat [1] (4 mg/kg s.c. −30 min), the “NUMBER OF CLONIC CONVULSIONS number of rats” value is on record as 0+++, the “NUMBER OF DEATHS number of rats” value is 0+++, the “NUMBER OF TONIC CONVULSIONS number of rats” value is 0+++ and the “NUMBER OF CLONIC CONVULSIONS % antagonism” value was 100%. For the same compound, in the data set on rat [1] (4 mg/kg s.c. −30 min), the “NUMBER OF DEATHS % antagonism” value was 100% and the “NUMBER OF TONIC CONVULSIONS % antagonism” value worked out at 100%.

Take `COC(=O)[C@H](c1ccccc1)[C@H]1CCCCN1` [d-MPH, d-threo-Methylphenidate]: the “SLEEP DURATION % change from control” value is −83% with rat [2] (0.25 mg/kg s.c. −30 min), −65% in the data set with rat [2] (0.5 mg/kg s.c. −30 min), −97% in the data set on rat [2] (1 mg/kg s.c. −30 min) and −100% with rat [2] (2 mg/kg s.c. −30 min). Further, the “NUMBER OF RATS SLEEPING” value with rat [2] (0.25 mg/kg s.c. −30 min) was 6; in the data set with rat [2] (0.5 mg/kg s.c. −30 min), 8; in the data set on rat [2] (1 mg/kg s.c. −30 min) it was 3 ++; with rat [2] (2 mg/kg s.c. −30 min), 0 ++. In addition, the “SLEEP DURATION mean ± s.e.m.” value in the data set on rat [2] (0.25 mg/kg s.c. −30 min) is listed as 10.5 ± 5.3** min; with rat [2] (0.5 mg/kg s.c. −30 min) it was 21.6 ± 13.5* min; with rat [2] (1 mg/kg s.c. −30 min), 2.1 ± 1.5*** min; in the data set on rat [2] (2 mg/kg s.c. −30 min) it was 0.0 ± 0.0*** min. The “pharmacological action in the treatment of ADHD” value in data set [4] was “is the property of the d-enantiomer”.

`Cn1c(=O)c2c(ncn2C)n(C)c1=O` [Caffeine]: in the data set with rat [2] (16 mg/kg s.c. −30 min), the “SLEEP DURATION % change from control” value is −99%, the “NUMBER OF RATS SLEEPING” value was 1 +++ and the “SLEEP DURATION mean ± s.e.m.” value is given as 0.5 ± 0.5*** min.

The record behind these values is patent publication US7384959B2, “Treatment of convulsive states” (priority 1999, dated 2008).
